From PubChem BioAssay AID624258 (Broad Institute, 2012)
Active and inactive are the calls of the source. The rule behind the calls is not given here.

tested on: S. cerevisiae SKN7-toxicity growth rescue, plate reader; assay: SKN7 mediated toxicity in Saccharomyces cerevisiae, growth rescue counterscreen, dose confirmation (AID 624258);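 note: growth read after three days of incubation at 30 °C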

| SMILES | AC40 |
| --- | --- |
| CC1=CC(=O)C=C(C)C1=NOS(=O)(=O)c1ccccc1 | 0.454 µM |
| Cc1ccc2oc(-c3ccccc3)c(C(=O)O)c(=O)c2c1 | 1.26 µM |
| Cc1nnc(N=c2ssnc2Cl)o1 | 0.832 µM |
| O=c1cnn([C@@H]2O[C@H](CO)[C@@H](O)[C@H]2O)c(=O)[nH]1 | 0.882 µM |
| O=C(CCc1ccccc1)NNC(=S)NC(=O)c1ccccc1 | 0.923 µM |
| CCOC(=O)c1c(-c2ccccc2)oc2ccc(O)cc12 | 10.4 µM |
| O=C1c2ccccc2C2=Nc3ccccc3SC(c3cccc(F)c3)C12 (stereo not drawn) | 1.24 µM |
| COc1ccccc1N(C)S(=O)(=O)c1ccc(Cl)c(C(=O)NNC(=O)c2ccccc2O)c1 | 1.95 µM |
| O=C(Cc1ccccc1F)Nc1nc(-c2ccc(F)c(F)c2)cs1 | 2.54 µM |
| O=C(NNC(=O)c1cc(Cl)ccc1O)c1ccc(NS(=O)(=O)c2cccs2)cc1 | 5.75 µM |
| COc1cccc2c1C(=O)c1c(O)c3c(c(O)c1C2=O)C[C@@](O)(C(=O)CO)C[C@@H]3O[C@H]1C[C@H](N)[C@H](O)[C@H](C)O1 | 6.21 µM |
| CCOC(=O)c1c(C)oc2c1C(=O)c1ccccc1C2=O | 2.28 µM |
| CN(C)c1ccc(-n2cccc2/C=C/[N+](=O)[O-])cc1 | 1.16 µM |
| Cc1nc(SCC(=O)N2CCN(c3ccccc3)CC2)c2oc3ccccc3c2n1 | 3.53 µM |
| CCCCCCCCCCOC(=O)Cn1c(COc2ccc(OC)cc2)[n+](C)c2ccccc21 | 3.33 µM |
| COc1ccc(N(C(=O)c2ccncc2)S(=O)(=O)c2ccc(F)cc2)cc1 | 3.67 µM |
| Cc1ccccc1N1CCN(C2=NC(=O)/C(=C\c3cccs3)S2)CC1 | 4.83 µM |
| Cc1ccc(C(C[N+](=O)[O-])c2c(N)n(C)c(=O)n(C)c2=O)cc1 (stereo not drawn) | 4.96 µM |
| O=C(O)c1ccc(N/N=C/C=C/c2ccccc2)cc1 | 1.11 µM |
| CC/C(=N\Nc1ccc([N+](=O)[O-])cc1)c1ccccc1 | 1.62 µM |
| CC(C)CN=Cc1c(O)c([N+](=O)[O-])cc2oc3c(c12)CCCC3 | 1.25 µM |
| COc1ccc(NC(=O)/C(Cl)=C(/Cl)S(=O)(=O)Cc2ccc(C)cc2)cn1 | 1.24 µM |
| CC(C)=CCc1c(O)cc(O)c2c1OC(c1ccc(O)cc1)CC2=O (stereo not drawn) | 12.7 µM |

| SMILES | AC40 |
| --- | --- |
| O=C1C(Br)=Cc2cccc3cccc1c23 | 5.81 µM |
| CCCOc1ccc(C(=O)NNC(=S)NC(=O)CC)cc1 | 1.48 µM |
| C[C@H](O)[C@H]1CC[C@H]2[C@@H]3CCC4=CC(=O)CC[C@]4(C)[C@H]3CC[C@]12C | 2.05 µM |
| COc1ccc(CNC(=O)c2c(C)oc3c2C(=O)c2ccccc2C3=O)cc1 | 8.26 µM |
| CCOC(=O)c1ccc(N2C(=O)CC(N(C)CCc3ccc(OC)c(OC)c3)C2=O)cc1 (stereo not drawn) | 4.82 µM |
| COc1ccc(-c2cc(C(=O)N3CCN(c4ccccc4F)CC3)c3ccccc3n2)c(OC)c1 | > 19.5 µM (inactive) |
| CC(=O)c1ccc(Sc2ccccc2)c([N+](=O)[O-])c1 | > 19.5 µM (inactive) |
| Cc1csc(NC(=S)Nc2cccc(Cl)c2)n1 | 11.6 µM |
| COc1cccc(NC=C2C(=O)OC3(CCCCC3)OC2=O)c1 | 5.08 µM |
| O=C1c2ccccc2NC(c2ccc(-c3ccc(C(F)(F)F)cc3)o2)N1O (stereo not drawn) | 1.71 µM |
| Cc1ccccc1OCc1nc2ccccc2n1C | 7.54 µM |
| Cc1cccc(N2CCN(C(=O)c3c(-c4ccccc4)noc3C)CC2)c1C | 0.414 µM |
| c1c[nH]c(CN2CCN(Cc3ncc[nH]3)CC2)n1 | 1.7 µM |
| COC(=O)C1CCN(C2CC(=O)N(c3cc(C)cc(C)c3)C2=O)CC1 (stereo not drawn) | 6.63 µM |
| O=C(CSc1nnc(-c2ccccc2O)n1Cc1ccccc1)NNC(=O)c1ccccc1O | 6.84 µM |
| Oc1ccc(-c2nc3ccccc3s2)c(O)c1 | 0.726 µM |
| O=c1[nH]cc(F)c(=O)[nH]1 | 9.32 µM |
| Cc1c(C(=O)NCCSCc2cccc(C(F)(F)F)c2)cnn1-c1ccc(Cl)cc1 | 6.53 µM |
| O=C(O/N=C(\c1ccccc1)c1ccncc1)c1ccccc1Cl | 9.26 µM |
| Cc1ccc(C)c(S(=O)(=O)N2CCN(Cc3ccc(O)c4ncccc34)CC2)c1 | 5.93 µM |
| O=C(O)c1ccccc1NS(=O)(=O)c1cccc(-n2sc3ccccc3c2=O)c1 | 4.77 µM |
| Cc1ccc(C(C)(C)C)cc1S(=O)(=O)Nc1ncnc2sccc12 | 1.15 µM |
| Oc1ccccc1-c1nnc(SCCN2CCOCC2)n1Cc1ccccc1 | 9.94 µM |

| SMILES | AC40 |
| --- | --- |
| O=C(Nc1ccc(Cl)c(Cl)c1)C1CCCCC1 | 0.565 µM |
| COc1ccc(C(c2c(O)ccc3ccccc23)N2CCOCC2)c(OC)c1 (stereo not drawn) | 2.35 µM |
| Cc1ccc(Nc2c(-c3ccccc3O)nc3cnccn23)cc1 | 8.08 µM |
| Cc1ccc(CN2CC(C(=O)N(Cc3nnc(-c4ccccc4Cl)o3)C3CC3)CC2=O)cc1 (stereo not drawn) | 8.15 µM |
| O/C(=C\c1nc2ccccc2nc1/C=C(\O)c1ccccc1)c1ccccc1 | 4.59 µM |
| Cc1onc(-c2ccccc2)c1C(=O)NC(=S)NNC(=O)c1cc(-c2ccc(F)cc2)n[nH]1 | 2.1 µM |
| CCNc1nc(N)nc(-c2cc(Cl)ccc2O)n1 | 2.17 µM |
| COc1ccc(N2C(=O)C(Cl)=C(Nc3ccccc3O)C2=O)cc1 | 4.9 µM |
| COC(=O)/C=C\C(=O)Nc1cccc([N+](=O)[O-])c1 | 2.17 µM |
| CC1CC(C)CC(C)C(O)C(C#N)=CC=CCC(C2CCCC2C(=O)O)OC(=O)CC(O)C(C)C1 (stereo not drawn) | 10.3 µM |
| COc1cc2c(cc1OC)C(C)N(C(=O)c1cc3c(=O)oc4ccc(C)cc4c3s1)CC2 (stereo not drawn) | > 19.5 µM (inactive) |
| O=c1c2cc(Cl)ccc2oc2nc3n(c(=O)c12)CCCS3 | 19.1 µM |
| O=[N+]([O-])c1cc2oc3c(c2c(C=NCc2ccccc2)c1O)CCCC3 | 1.38 µM |
| O=C(CSc1ccc(-c2ccccn2)nn1)c1ccccc1 | 1.22 µM |
| Oc1c(C(Nc2cccc(C(F)(F)F)c2)c2cccnc2)ccc2cccnc12 (stereo not drawn) | 2.73 µM |
| O=C1C=C(c2ccccc2)C(=O)N1Nc1ccccc1 | 1.15 µM |
| COc1ccc([C@H]2[C@H]3C=CC[C@@H](C)[C@@H]3C(=O)N2Cc2ccccc2)cc1Cl | 4.57 µM |
| Cc1n[nH]c(C)c1N=Nc1ccc(Br)cc1 | 1.76 µM |
| O=C1c2ccccc2NC(c2ccc(Cl)cc2Cl)N1O (stereo not drawn) | 7.55 µM |
| CC(NC(=S)NC1CCC(C(C)(C)C)CC1)c1ccccc1 (stereo not drawn) | 6.16 µM |
| CCN(CC)c1ccc(/C=N/NC(=O)c2c(Cl)cnn2C)c(O)c1 | 0.878 µM |
| N/C(Cc1ccc(Cl)cc1Cl)=N\OC(=O)c1ccccc1F | 0.718 µM |
| Cc1cc(/C=C2\SC(=S)NC2=O)c(C)n1-c1cccc(O)c1 | 6.18 µM |

| SMILES | AC40 |
| --- | --- |
| Cc1ccnc(NC(c2ccsc2)c2ccc3ccc(C)nc3c2O)c1 (stereo not drawn) | 6.7 µM |
| Cc1onc(-c2ccccc2)c1C(=O)OCc1nnc(-c2ccc([N+](=O)[O-])cc2)o1 | 2.27 µM |
| CC1CC(C)CN(C(=O)c2cccc(S(=O)(=O)Nc3cc(C(F)(F)F)ccc3Cl)c2)C1 (stereo not drawn) | 16.8 µM |
| O=C(Oc1cccc(C(=S)N2CCOCC2)c1)c1ccc([N+](=O)[O-])cc1[N+](=O)[O-] | 16.4 µM |
| Cc1cccc(C)c1N=Nc1c(C)cc(O)cc1C | 1.12 µM |
| COc1cc2c(cc1/C=C/[N+](=O)[O-])OCO2 | 6.54 µM |
| COC(=O)c1ccc(SC2CCCCC2)c([N+](=O)[O-])c1 | 1.47 µM |
| O=C(CSc1ccc(-c2ccccn2)nn1)N1CCc2ccccc21 | 10.2 µM |
| Cc1ccc(SCCNC(=S)Nc2ccc(C)c(C)c2)cc1 | 14.2 µM |
| CC(C)(C)c1ccc(Oc2ccc(N)cc2)cc1 | 1.95 µM |
| Cc1cc2oc(=O)cc(-c3ccccc3)c2c(C)c1-c1ccc(CO)cc1 | 4.67 µM |
| Cc1nn(CCO)c(N)c1C1(O)C(=O)Nc2c(Cl)cc(Cl)cc21 (stereo not drawn) | 18.5 µM |
| COC1=C(OC)C(=O)C(Sc2ccc3ccccc3c2)=CC1=O | 6.52 µM |
| Cn1cnc([N+](=O)[O-])c1S(=O)(=O)Oc1ccc(Cl)cc1 | 1.31 µM |
| COc1cccc(Oc2cncnc2-c2ccc(OC)cc2O)c1 | 18.9 µM |
| CC1S/C(=C(\C#N)C(=O)NCc2ccco2)N(Cc2ccco2)C1=O (stereo not drawn) | > 19.5 µM (inactive) |
| COc1cccc(CNC(=O)COc2ccc(C(=O)c3ccccc3)cc2)c1 | 18 µM |
| Cc1ccc(COc2ccc(Br)cc2/C=N/O)cc1 | 1.27 µM |
| CC1CCCCC1NC(=O)/C(C#N)=C/c1ccccc1F (stereo not drawn) | 2.04 µM |
| CC(NCCN(C)C)C1CCC2C3CCc4cc(O)ccc4C3CCC12C (stereo not drawn) | 0.126 µM |
| Cc1ccc([C@@H]2CC=C(C(=O)O)[C@H](c3ccc(Br)cc3)N2S(=O)(=O)c2ccccc2C)cc1 | 5.39 µM |
| Cc1c2cnccc2c(C)c2c1oc1ccccc12 | 2.99 µM |
| Cc1ccc(S(=O)(=O)N/N=C\c2ccc([N+](=O)[O-])o2)cc1C | 10.5 µM |

| SMILES | AC40 |
| --- | --- |
| Nc1c(Cl)ncnc1N/N=C/c1ccc2ccccc2n1 | 4.34 µM |
| COc1cccc2c1C(=O)c1c(O)c3c(c(O)c1C2=O)CC(O)(C(C)=O)CC3OC1CC(N(C)C)C(O)C(C)O1 (stereo not drawn) | 2.85 µM |
| COc1cccc(C(=O)N/N=C(/c2ccccc2)c2ccccn2)c1 | 3.84 µM |
| COC(=O)c1cc(Sc2cccc(Cl)c2Cl)ccn1 | 14.7 µM |
| Cc1ccc(C)c(C(=O)O/N=C(\N)c2ccc(Br)cc2)c1 | 3.86 µM |
| O=C(N/N=C/c1cc(Br)ccc1O)c1ccccc1Cl | 0.659 µM |
| O=C(C1CC2C=CC1C2)N1CCN(c2ccccc2)CC1 (stereo not drawn) | 3.11 µM |
| O=C(NCCN1CCN(c2cccc(Cl)c2)CC1)c1ccc(CSc2nc3ccncc3[nH]2)cc1 | 8.35 µM |
| COc1ccc2c(c1)OC[C@H]1[C@H]2N2C(=O)c3cc(OC)ccc3NC(=O)[C@@]2(C)[C@H]1c1ccccc1 | 9.31 µM |
| O=C(O)c1ccc(N/N=C/C2=C(N3CCOCC3)C(=C\c3ccccc3)/CC2)cc1 | 5.01 µM |
| C=CS(=O)(=O)c1sc(Cl)c(N2CCOCC2)c1[N+](=O)[O-] | 0.653 µM |
| COC1=CC(=O)c2c(ccc3ncnc(N)c23)C1=O | 10.1 µM |
| Clc1cccc(-c2noc3ncnc(Nc4ccc5c(c4)OCO5)c23)c1 | 7.06 µM |
| O=C1CC(N2CCCCCC2)C(=O)N1c1ccc2c(c1)OCO2 (stereo not drawn) | 6.75 µM |
| Cc1ccc2c(C)c3ccc4ccccc4c3c[n+]2c1 | 0.247 µM |
| O=C(c1ccco1)N1CCN(C(=O)c2ccccc2OCc2ccc(Cl)cc2)CC1 | 19.1 µM |
| Cc1cccc(N2C(=O)C(Oc3ccc(Cl)cc3Cl)C2C=O)c1C (stereo not drawn) | 1.98 µM |
| COc1ccc2c(c1)OC[C@H]1[C@H]2N2C(=O)c3cc(Cl)ccc3NC(=O)[C@@]2(C)[C@H]1c1ccccc1 | 10.8 µM |
| O=C(CCCNC(=O)c1ccc(Cl)cc1)OCc1cccc(Br)c1 | > 19.5 µM (inactive) |
| COc1cc(C(=O)ON=C2C3CC4CC(C3)CC2C4)cc(OC)c1OC | 1.79 µM |
| CC(=O)C1CCC2C3CC=C4CC(SC(=N)N)CCC4(C)C3CCC12C (stereo not drawn) | 1.66 µM |
